Experimental findings from US20060247862A1, “Determining cell cycle phase data” (priority 2003, published 2006) are described below.

This test relates to U2OS cells. Put plainly: Effect of cell cycle blocking agents on GFP fluorescence from cell cycle phase marker using transiently transfected cells. The format is cell-based. The conditions noted are these: U2OS cells transiently transfected with cyclin B1 promoter/D-box/CRS-GFP construct; 24 hours exposure; compared to control cells (culture media alone); confocal imaging. The protocol:
U2OS cells (ATCC HTB-96) were cultured in wells of a 96 well microtitre plate. Cells were transfected with a cell cycle reporter construct prepared according to Example 1, comprising a cyclin B1 promoter operably linked to sequences encoding the cyclin B1 D-box, the cyclin B1 CRS, and GFP in a pCORON4004 vector (Amersham Biosciences) using Fugene 6 (Roche) as the transfection agent.
Following 24 hours of culture, cells were exposed to the specific cell cycle blockers mimosine (blocks at G1/S phase boundary) or demecolcine (blocks in M phase). Control cells were exposed to culture media alone.
Cells were incubated for a further 24 hours and then analysed for nuclear GFP expression using a confocal scanning imager with automated image analysis (IN Cell Analysis System, Amersham Biosciences).

With `CN[C@H]1CCc2cc(OC)c(OC)c(OC)c2-c2ccc(OC)c(=O)cc21` [demecolcine], the “GFP fluorescence (nuclear GFP expression) from cell cycle phase marker” value is “increased fluorescence compared to control cells”. On to `NC(Cn1ccc(=O)c(O)c1)C(=O)O` (centres unmarked) [mimosine], for which the “GFP fluorescence (nuclear GFP expression) from cell cycle phase marker” value was “decreased fluorescence compared to control cells”.
